From patent US11497212B2, “Substituted thiophenyl uracils, salts thereof and the use thereof as herbicidal agents” (Syngenta Crop Protection AG, priority 2017, dated 2022)

Legend:
Format in all cases: in vivo
[1] = test system: Abutilon theophrasti; assay: Herbicidal action post-emergence (greenhouse pot trial); conditions: application rate 20 g/ha, scored visually after about 3 weeks vs untreated controls
Experimental: (§1) Seeds of mono- and dicotyledonous weed plants and crop plants are laid out in sandy loam soil in plastic or wood-fiber pots, covered with earth and grown under controlled growth conditions in a greenhouse. 2 to 3 weeks after sowing, the trial plants are treated at the one-leaf stage. The compounds of the invention formulated in the form of wettable powders (WP) or emulsion concentrates (EC) were then sprayed onto the green parts of the plant as an aqueous suspension or emulsion with addition of 0.5% additive at a water application rate equivalent to 600 L/ha. After the trial plants had stood for about 3 weeks in the greenhouse, under optimal growth conditions, the effect of the preparations was scored visually by comparison with untreated controls. For example, 100% efficacy=plants have died, 0% efficacy=like control plants. Tables A1 to A15 below show the efficacies of selected compounds of the general formula (I) according to tables I.1 to I.60 on various harmful plants and an application rate corresponding to 80 g/ha or lower that were obtained by the aforementioned trial method.

[2] = test system: Amaranthus retroflexus; assay: as above; conditions: application rate 20 g/ha, scored visually after about 3 weeks vs untreated controls
Experimental: as §1

[3] = test system: Matricaria inodora; assay: as above; conditions: application rate 20 g/ha, scored visually after about 3 weeks vs untreated controls
Experimental: as §1

[4] = test system: Pharbitis purpurea; assay: as above; conditions: application rate 20 g/ha
Experimental: as §1

[5] = test system: Polygonum convolvulus; assay: as above; conditions: application rate 20 g/ha, scored visually after about 3 weeks vs untreated controls
Experimental: as §1

[6] = test system: Stellaria media; assay: as above; conditions: application rate 20 g/ha, scored visually after about 3 weeks vs untreated controls
Experimental: as §1

[7] = test system: Veronica persica; assay: as above; conditions: application rate 20 g/ha
Experimental: as §1

[8] = test system: Viola tricolor; assay: as above; conditions: application rate 20 g/ha
Experimental: as §1

[9] = test system: Oryza sativa; assay: Crop compatibility post-emergence (greenhouse pot trial); conditions: application rate 20 g/ha
Experimental: as §1, with “plants.” for “plants. Tables A1 to A15 below show the efficacies of selected compounds of the general formula (I) according to tables I.1 to I.60 on various harmful plants and an application rate corresponding to 80 g/ha or lower that were obtained by the aforementioned trial method.”
(§2) Crop plant compatibilities were also scored correspondingly.
(§3) The effects observed are reported here on selected crop plants by comparison with the untreated controls (values in %).

[10] = test system: Triticum aestivum; assay: as above
Experimental: as §1, with “plants.” for “plants. Tables A1 to A15 below show the efficacies of selected compounds of the general formula (I) according to tables I.1 to I.60 on various harmful plants and an application rate corresponding to 80 g/ha or lower that were obtained by the aforementioned trial method.”
as §2, §3

Compound	Oryza sativa (Efficacy in %) [9] [%]	Triticum aestivum (Efficacy in %) ([10]; application rate 20 g/ha) [%]	Triticum aestivum (Efficacy in %) ([10]; application rate 5 g/ha) [%]	Abutilon theophrasti (Efficacy in %) [1] [%]	Amaranthus retroflexus (Efficacy in %) [2] [%]	Matricaria inodora (Efficacy in %) [3] [%]	Pharbitis purpurea (Efficacy in %) [4] [%]	Polygonum convolvulus (Efficacy in %) [5] [%]	Stellaria media (Efficacy in %) [6] [%]	Veronica persica (Efficacy in %) [7] [%]	Viola tricolor (Efficacy in %) [8] [%]
CC(Sc1cc(-n2c(=O)cc(C(F)(F)F)n(C)c2=O)c(F)cc1Cl)C(=O)NCC1COCCO1 (stereo not shown) [I.1-331]	10	–	–	100	100	90	–	–	80	100	100
CC1CC(COC(=O)C(C)(C)CSc2cc(-n3c(=O)cc(C(F)(F)F)n(C)c3=O)c(F)cc2Cl)CO1 (stereo not shown) [I.48-73]	0	0	–	100	100	80	100	80	100	100	100
CC(Sc1cc(-n2c(=O)cc(C(F)(F)F)n(C)c2=O)c(F)cc1Cl)C(=O)NCCCOCc1ccccc1 (stereo not shown) [I.1-180]	0	20	–	100	100	100	100	100	90	100	100
Cn1c(C(F)(F)F)cc(=O)n(-c2cc(SCC(C)(C)C(=O)OCC3CCSC3)c(Cl)cc2F)c1=O (stereo not shown) [I.48-82, Tetrahydrothiophen-3-ylmethyl 3-({2-chloro-4-fluoro-5-[3-methyl-2,6-dioxo-4-(trifluoromethyl)-3,6-dihydropyrimidin-1(2H)-yl]phenyl}sulfanyl)-2,2-dimethylpropanoate]	–	–	0	100	100	–	–	100	–	–	–
Cc1c(C(F)(F)F)n(C)c(=O)n(-c2cc(SC(CC(C)C)C(=O)NCC3CCCO3)c(Cl)cc2F)c1=O (stereo not shown) [I.14-221]	10	20	–	90	100	80	100	80	–	100	100

More lines, main results first:

Oryza sativa (Efficacy in %) [9] [%]	Triticum aestivum (Efficacy in %) ([10]; application rate 20 g/ha) [%]	Triticum aestivum (Efficacy in %) ([10]; application rate 5 g/ha) [%]	Compound	Abutilon theophrasti (Efficacy in %) [1] [%]	Amaranthus retroflexus (Efficacy in %) [2] [%]	Matricaria inodora (Efficacy in %) [3] [%]	Pharbitis purpurea (Efficacy in %) [4] [%]	Polygonum convolvulus (Efficacy in %) [5] [%]	Stellaria media (Efficacy in %) [6] [%]	Veronica persica (Efficacy in %) [7] [%]	Viola tricolor (Efficacy in %) [8] [%]
10	20	–	CC(CC(=O)OCC1CCCO1)Sc1cc(-n2c(=O)cc(C(F)(F)F)n(C)c2=O)c(F)cc1Cl (stereo not shown) [I.49-71]	100	100	100	100	100	100	100	100
10	–	–	CC(CC(=O)OCC1CCOC1)Sc1cc(-n2c(=O)cc(C(F)(F)F)n(C)c2=O)c(F)cc1Cl (stereo not shown) [I.49-72]	100	100	90	–	–	–	100	100
10	–	–	CC(CC(=O)NCC1CCCO1)Sc1cc(-n2c(=O)cc(C(F)(F)F)n(C)c2=O)c(F)cc1Cl (stereo not shown) [I.49-221]	100	100	90	100	100	90	100	–
